# Experimental data as given in patent US8846636B2, “Nucleoside analogues with quaternary carbon stereogenic centers and methods of use” (LCB Pharma Inc., priority 2008, dated 2014).
# Columns and labels:
# Type in all cases: cell-based
# MCF7 = assay: MTT cell proliferation assay, MCF7; settings: Homo sapiens; MCF7 cell line (mammary gland; breast)
# Description: (§1) The antiviral and antitumor activities of the compounds of the invention were evaluated by a cellular proliferation assay. The MTT [3-(4,5-dimethylthiazol-2-yl)-2,5-diphenyltetrazolium bromide] assay, first described by Mosmann (Mosmann T., “Rapid colorimetric assay for cellular growth and survival: application to proliferation and cytotoxicity assays,” J. Immunol. Methods 1983 Dec. 16; 65(1-2):55-63, and incorporated by reference in its entirety) is based on the ability of a mitochondrial dehydrogenase enzyme from viable cells to cleave the tetrazolium rings of the pale yellow MTT. The cleavage reaction form a dark blue formazan crystals which is largely impermeable to cell membranes and accumulation within healthy cells. Solubilisation of the cells by the addition of a detergent liberates and solubilizes the crystals. The number of surviving cells is directly proportional to the level of the formazan product created. The color can then be quantified using a simple colorimetric assay. The results can be read on a multiwell scanning spectrophotometer (ELISA reader).
# (§2) In Tables 1 and 2, IC50 values are presented for various cell lines in micromolar units (μm), “Gemci” is Gemcitabine, and “5-FU” is 5-fluorouracil.
# NCI H2052 = assay: MTT cell proliferation assay, NCI H2052; settings: Homo sapiens; NCI H2052 cell line (tumor stage 4 derived from pleural effusion)
# Description: as §1, §2
# BxPC-3 = assay: MTT cell proliferation assay, BxPC-3; settings: Homo sapiens; BxPC-3 cell line (pancreas)
# Description: as §1, §2
# DLD-1 = assay: MTT cell proliferation assay, DLD-1; settings: Homo sapiens; DLD-1 cell line (colon)
# Description: as §1, §2
# 22Rv1 = assay: MTT cell proliferation assay, 22Rv1; settings: Homo sapiens; 22Rv1 cell line (prostate)
# Description: as §1, §2
# Colo 829 = assay: MTT cell proliferation assay, Colo 829; settings: Homo sapiens; Colo 829 cell line (skin)
# Description: as §1, §2
# 786-O = assay: MTT cell proliferation assay, 786-O; settings: Homo sapiens, 786-0; 786-O cell line (kidney)
# Description: as §1, §2
# HL-60 = assay: MTT cell proliferation assay, HL-60; settings: Homo sapiens; HL-60 cell line (acute promyelocytic leukemia)
# Description: as §1, §2
# 1A6 = assay: MTT cell proliferation assay, 1A6; settings: 1A6 cell line (urinary bladder)
# Description: as §1, §2
# OVCAR3 = assay: MTT cell proliferation assay, OVCAR3; settings: Homo sapiens, OVCAR-3; OVCAR3 cell line (ovary)
# Description: as §1, §2
# NCI H1395 = assay: MTT cell proliferation assay, NCI H1395; settings: Homo sapiens, NCI-H1395, NCI H1395 cell line (lung)
# Description: as §1, §2
# PFSK-1 = assay: MTT cell proliferation assay, PFSK-1; settings: Homo sapiens; PFSK-1 cell line (brain)
# Description: as §1, §2
# ZR-75-1 = assay: MTT cell proliferation assay, ZR-75-1; settings: Homo sapiens; ZR-75-1 cell line (mammary gland; breast)
# Description: as §1, §2
# HCC1143 = assay: MTT cell proliferation assay, HCC1143; settings: Homo sapiens; HCC1143 cell line (mammary gland; breast)
# Description: as §1, §2
# MOLT-4 = assay: MTT cell proliferation assay, MOLT-4; settings: Homo sapiens, MOLT-4, MOLT-4 cell line (acute lymphoblastic leukemia)
# Description: as §1, §2
# HCT 116 = assay: MTT cell proliferation assay, HCT 116; settings: Homo sapiens; HCT 116 cell line (colon)
# Description: as §1, §2
IC50 (MCF7) [µM],IC50 (BxPC-3) [µM],IC50 (DLD-1) [µM],IC50 (22Rv1) [µM],IC50 (Colo 829) [µM],IC50 (786-O) [µM],IC50 (HL-60) [µM],IC50 (OVCAR3) [µM],IC50 (HCC1143) [µM],IC50 (MOLT-4) [µM],IC50 (HCT 116) [µM],Compound,IC50 (NCI H2052) [µM],IC50 (1A6) [µM],IC50 (NCI H1395) [µM],IC50 (PFSK-1) [µM],IC50 (ZR-75-1) [µM]
430,> 500,> 500,> 500,460,> 500,> 500,> 500,> 500,> 500,> 500,"C[C@@]1(CO)[C@@H](CO)O[C@@H](n2ccc(N)nc2=O)[C@@H]1O [LCB-1095, 4-amino-1-((2R,3R,4S,5S)-3-hydroxy-4,5-bis(hydroxymethyl)-4-methyltetrahydrofuran-2-yl)pyrimidin-2(1H)-one]",> 500,> 500,> 500,> 500,> 500
40,220,470,50,170,110,25,35,340,20,25,"O=c1[nH]cc(F)c(=O)[nH]1 [5-FU, 5-fluorouracil, reference compound]",> 500,300,> 500,460,> 500
> 500,< 0.5,> 500,> 500,< 0.5,> 500,< 0.5,5,400,< 0.5,< 0.5,"Nc1ccn([C@@H]2O[C@H](CO)[C@@H](O)C2(F)F)c(=O)n1 [Gemci., Gemcitabine, reference compound]",> 500,5,< 0.5,> 500,> 500
